In patent US20220323408A1, “COMPOSITION USED FOR COMBATING METABOLIC DISEASES AND USES OF COMPOSITION” (Institute of Zoology, Chinese Academy of Sciences, priority 2019, published 2022):

Key:
[1] = system: HFD (high-fat diet)-induced obesity and insulin resistance; settings: C57BL/6J mice; cited from earlier work
pancreatic beta cells = settings: by reducing PGE2-mediated β-cell apoptosis; cited from earlier work
[2] = system: diet-induced obesity (DIO) male mice; assay: Body weight change in diet-induced obesity (DIO) mice, 10 days; format: in vivo; settings: 30 mg/kg A alone or 5 mg/kg B alone per day i.p.
Protocol: In addition, the control group and the experimental group of the present invention all adopt intraperitoneal injections in the process. The injection volume starts at 4 μl/g of body weight and can be adjusted according to the dose, in which the therapeutic agent A in the experimental group (aspirin (trade name Aspirin) is used in the following examples) is diluted in PBS to a dose between 0.3 mg/kg and 120 mg/kg of body weight, the therapeutic agent B (trimetazidine (trade name Trimetazidine) is used in the following examples) is diluted in PBS to a dose between 0.05 mg/kg and 500 mg/kg of body weight. In the control group, the same amount of the therapeutic agent A or the same amount of the therapeutic agent B alone is usually used, or only the same amount of PBS solvent is used as a blank control. Twenty 6-week-old diet-induced obesity (Jackson Lab's Diet-Induced Obese, DIO) male mice with similar physical status were selected and then divided into four groups, and the number of mice in each group was 5. […] The body weight of each mouse was recorded daily.

diabetic DIO mice [3] = assay: Body weight change in diabetic DIO mice, 4 weeks; format: in vivo; settings: 30 mg/kg A alone or 5 mg/kg B alone per day
diabetic DIO mice [4] = assay: Serum indicators of hyperlipidemia, fatty liver and nitrogen metabolism in diabetic DIO mice; format: in vivo; settings: 4 weeks, 30 mg/kg A and/or 5 mg/kg B per day, vs blank control group 3
Protocol: Subsequent tests were performed on each group of mice that had completed the treatment of Example 8. Examples 9 and 10 detected two indicators related to obesity and hyperlipidemia: total cholesterol and LDL-cholesterol; Example 11 detected alanine aminotransferase (ALT), an indicator related to fatty liver disease; and Examples 12 and 13 detected two indicators related to nitrogen metabolism: albumin/globulin ratio and total protein.

[5] = system: p38 and AMPK signaling pathways; assay: Western blot of in vitro human primary skeletal muscle cells over 24 hours; format: cell-based; settings: 100 mg/L A and/or 2 mg/L B, single agents vs DMSO control, weaker or slower than A+B
Protocol: In vitro human primary skeletal muscle cells were used in the test, the cells were divided into four groups, and each group had six time points. For the experimental group, 100 mg/L of therapeutic agent A and 2 mg/L of therapeutic agent B were administered; for the control group 1, 100 mg/L of therapeutic agent A was administered; for the control group 2, 2 mg/L of therapeutic agent B was administered; and for the control group 3, the same amount of DMSO solvent was used as a blank control. The experiment was conducted 24 hours in total.

[6] = system: primary human skeletal muscle cells induced insulin resistance; assay: Western blot of primary human skeletal muscle cells with induced insulin resistance, 7 days; format: cell-based; settings: palmitic acid + TNFα 7 days, 100 mg/L A and/or 2 mg/L B on day 4, vs control group 3; for insulin sensitivity indicator phospho-Akt / insulin sensitivity indicator phospho-S6 / myosin heavy chain (MHC): single agents comparably weak
Protocol: In vitro human primary skeletal muscle cells were used in the experiment, the cells were divided into six groups: for control group 1, the same amount of DMSO solvent was administered for 7 days as a blank control; for control group 2, the same amount of bovine serum albumin (BSA) was administered for 7 days as a fat solvent control; for control group 3, palmitic acid (Pal) and TNFα were administered for 7 days as a high-fat and inflammation-induced insulin resistance control; for control group 4, palmitic acid (Pal) and TNFα were administered for 7 days and 100 mg/L of therapeutic agent A was administered on day 4; for control group 5, palmitic acid (Pal) and TNFα were administered for 7 days and 2 mg/L of therapeutic agent B was administered on day 4; for the experimental group, palmitic acid (Pal) and TNFα were administered for 7 days and 100 mg/L of therapeutic agent A and 2 mg/L of therapeutic agent B were administered on day 4; afterwards, protein Western blot analysis was performed on each group of samples, as shown in FIG. 47.

[7] = LC-MS analysis of mouse serum 1 hour after administration; format: in vivo; settings: mice of control group 1 (30 mg/kg A); serum 1 hour later; LC-MS vs blank control group 3
Protocol: Mice were grouped and administered according to the same method as in Example 8, except that serum samples from each group of mice were subjected to liquid phase mass spectrometry (LC-MS, Waters XBridge C18 column and Xevo G2-XS) analysis 1 hour later, and the most prominent small molecule markers were taken out, as shown in FIG. 51.

[8] = long-term administration (3 to 24 hours)
[9] = short-term administration (within 60 minutes)

SMILES	effect on the body weight [2]	effect on the body weight (diabetic DIO mice [3])	LDL-cholesterol (diabetic DIO mice [4])	alanine aminotransferase (ALT) (diabetic DIO mice [4])	albumin/globulin ratio (diabetic DIO mice [4])	total cholesterol (diabetic DIO mice [4])	total protein (diabetic DIO mice [4])	PGC1a [5, 8]	phospho-ACC [5, 8]	phospho-p38 [5, 8]	PGC1a [5, 9]	phospho-ACC [5, 9]	phospho-AMPK [5, 9]	phospho-p38 [5, 9]	cellular senescence indicator H3K9me3 [6]	insulin sensitivity indicator phospho-Akt [6]	insulin sensitivity indicator phospho-S6 [6]	myosin heavy chain (MHC) [6]	also measured
COc1ccc2c(c1)c(CC(=O)O)c(C)n2C(=O)c1ccc(Cl)cc1 [Indomethacin]																			HFD (high-fat diet)-induced obesity [1]: prevent; HFD-induced insulin resistance [1]: prevent
CS(=O)(=O)Nc1ccc([N+](=O)[O-])cc1OC1CCCCC1 [NS-398]																			β-cell dysfunction (pancreatic beta cells): reverse
CC(=O)Oc1ccccc1C(=O)O [therapeutic agent A, aspirin]	almost no significant effect	almost no obvious effect	neither therapeutic agent A in control group 1 nor therapeutic agent B in control group 2 used alone was able to achieve significant therapeutic or restorative effects	neither therapeutic agent A in control group 1 nor therapeutic agent B in control group 2 used alone was able to achieve significant therapeutic or restorative effects	neither therapeutic agent A in control group 1 nor therapeutic agent B in control group 2 used alone was able to achieve significant therapeutic or restorative effects	neither therapeutic agent A in control group 1 nor therapeutic agent B in control group 2 used alone was able to achieve significant therapeutic or restorative effects	neither therapeutic agent A in control group 1 nor therapeutic agent B in control group 2 used alone was able to achieve significant therapeutic or restorative effects	could also down-regulate	could also down-regulate	could also down-regulate	could also up-regulate	could also up-regulate	could also up-regulate	could also up-regulate	can down-regulate	can also up-regulate	can also up-regulate	can also up-regulate	formation of salicylate derivatives in serum [7]: can effectively form a variety of salicylate derivatives in serum
COc1ccc(CN2CCNCC2)c(OC)c1OC [therapeutic agent B, trimetazidine]	almost no significant effect	almost no obvious effect	neither therapeutic agent A in control group 1 nor therapeutic agent B in control group 2 used alone was able to achieve significant therapeutic or restorative effects	neither therapeutic agent A in control group 1 nor therapeutic agent B in control group 2 used alone was able to achieve significant therapeutic or restorative effects	neither therapeutic agent A in control group 1 nor therapeutic agent B in control group 2 used alone was able to achieve significant therapeutic or restorative effects	neither therapeutic agent A in control group 1 nor therapeutic agent B in control group 2 used alone was able to achieve significant therapeutic or restorative effects	neither therapeutic agent A in control group 1 nor therapeutic agent B in control group 2 used alone was able to achieve significant therapeutic or restorative effects	could also down-regulate	could also down-regulate	could also down-regulate	could also up-regulate	could also up-regulate	could also up-regulate	could also up-regulate	cannot achieve the same effect	can also up-regulate	can also up-regulate	can also up-regulate	
